# The NIST ThermoML archive (doi:10.1021/acs.jced.6b00043)
# Details: 1008.1 K; Crystal; Closed cell (Static) method
smiles,measurement,value
O=C([O-])[O-].[Li+].[Li+] [lithium carbonate],vapor or sublimation pressure,1.552 kPa
